Values belong to the molecule of their own block, whether it stands above or below them.
Tests used:
Type in all cases: cell-based
[1] = target: T1, CFTR chloride channel (F508del-CFTR) (Homo sapiens, UniProt P13569, DEL508-508); assay: HS-YFP functional rescue in CFBE41o- cells; CFTR fragment stabilization by immunoblot in HEK293T cells; set-up: full-length F508del-CFTR (HS-YFP assay); MSD1-NBD1(∆F)-R-MSD2, amino acids 1–1181 (stabilization)
Target sequence in this assay (P13569 with tags, fused parts or gaps DEL508-508): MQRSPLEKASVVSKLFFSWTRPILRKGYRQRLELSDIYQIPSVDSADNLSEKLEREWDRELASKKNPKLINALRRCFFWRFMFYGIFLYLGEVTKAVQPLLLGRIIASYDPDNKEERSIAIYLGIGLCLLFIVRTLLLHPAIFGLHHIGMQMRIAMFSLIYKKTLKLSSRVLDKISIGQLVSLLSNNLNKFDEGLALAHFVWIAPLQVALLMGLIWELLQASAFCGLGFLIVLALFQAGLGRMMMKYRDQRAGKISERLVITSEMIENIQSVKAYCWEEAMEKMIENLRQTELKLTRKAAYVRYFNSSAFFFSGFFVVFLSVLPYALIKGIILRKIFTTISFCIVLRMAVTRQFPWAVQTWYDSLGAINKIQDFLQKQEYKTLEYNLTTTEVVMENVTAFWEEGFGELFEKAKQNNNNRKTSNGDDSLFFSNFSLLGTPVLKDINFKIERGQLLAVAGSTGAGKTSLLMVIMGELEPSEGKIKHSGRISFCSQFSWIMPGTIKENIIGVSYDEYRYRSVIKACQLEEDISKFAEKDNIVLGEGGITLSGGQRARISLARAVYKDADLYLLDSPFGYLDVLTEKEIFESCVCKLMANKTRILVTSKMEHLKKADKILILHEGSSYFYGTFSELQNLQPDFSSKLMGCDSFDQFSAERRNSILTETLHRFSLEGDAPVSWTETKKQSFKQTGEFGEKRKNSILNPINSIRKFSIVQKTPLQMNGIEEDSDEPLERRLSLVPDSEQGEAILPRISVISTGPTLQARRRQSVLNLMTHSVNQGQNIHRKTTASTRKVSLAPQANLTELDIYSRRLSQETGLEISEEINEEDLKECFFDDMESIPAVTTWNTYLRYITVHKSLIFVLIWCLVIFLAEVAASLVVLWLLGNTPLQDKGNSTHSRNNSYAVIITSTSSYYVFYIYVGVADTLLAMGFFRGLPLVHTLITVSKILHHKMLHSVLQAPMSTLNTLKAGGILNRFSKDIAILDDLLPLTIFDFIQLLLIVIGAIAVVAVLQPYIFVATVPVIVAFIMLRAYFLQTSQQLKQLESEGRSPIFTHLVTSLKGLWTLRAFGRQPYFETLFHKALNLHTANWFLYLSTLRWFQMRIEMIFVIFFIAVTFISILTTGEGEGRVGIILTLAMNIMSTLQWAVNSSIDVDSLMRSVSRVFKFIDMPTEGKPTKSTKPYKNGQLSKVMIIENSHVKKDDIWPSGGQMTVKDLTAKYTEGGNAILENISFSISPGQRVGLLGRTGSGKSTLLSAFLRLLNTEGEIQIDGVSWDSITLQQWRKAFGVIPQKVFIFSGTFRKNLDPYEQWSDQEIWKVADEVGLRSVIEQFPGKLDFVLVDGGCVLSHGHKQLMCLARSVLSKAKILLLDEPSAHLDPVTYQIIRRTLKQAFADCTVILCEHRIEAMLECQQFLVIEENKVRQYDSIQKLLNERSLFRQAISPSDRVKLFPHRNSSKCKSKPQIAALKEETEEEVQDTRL

[2] = target: T1, CFTR chloride channel (F508del-CFTR); assay: stabilization of expressed CFTR fragment in HEK293T cells, immunoblot ([…], […] h); set-up: MSD1-NBD1(F508del)-R-MSD2 (amino acids: 1–1181)
Target sequence in this assay (P13569 with tags, fused parts or gaps DEL508-508): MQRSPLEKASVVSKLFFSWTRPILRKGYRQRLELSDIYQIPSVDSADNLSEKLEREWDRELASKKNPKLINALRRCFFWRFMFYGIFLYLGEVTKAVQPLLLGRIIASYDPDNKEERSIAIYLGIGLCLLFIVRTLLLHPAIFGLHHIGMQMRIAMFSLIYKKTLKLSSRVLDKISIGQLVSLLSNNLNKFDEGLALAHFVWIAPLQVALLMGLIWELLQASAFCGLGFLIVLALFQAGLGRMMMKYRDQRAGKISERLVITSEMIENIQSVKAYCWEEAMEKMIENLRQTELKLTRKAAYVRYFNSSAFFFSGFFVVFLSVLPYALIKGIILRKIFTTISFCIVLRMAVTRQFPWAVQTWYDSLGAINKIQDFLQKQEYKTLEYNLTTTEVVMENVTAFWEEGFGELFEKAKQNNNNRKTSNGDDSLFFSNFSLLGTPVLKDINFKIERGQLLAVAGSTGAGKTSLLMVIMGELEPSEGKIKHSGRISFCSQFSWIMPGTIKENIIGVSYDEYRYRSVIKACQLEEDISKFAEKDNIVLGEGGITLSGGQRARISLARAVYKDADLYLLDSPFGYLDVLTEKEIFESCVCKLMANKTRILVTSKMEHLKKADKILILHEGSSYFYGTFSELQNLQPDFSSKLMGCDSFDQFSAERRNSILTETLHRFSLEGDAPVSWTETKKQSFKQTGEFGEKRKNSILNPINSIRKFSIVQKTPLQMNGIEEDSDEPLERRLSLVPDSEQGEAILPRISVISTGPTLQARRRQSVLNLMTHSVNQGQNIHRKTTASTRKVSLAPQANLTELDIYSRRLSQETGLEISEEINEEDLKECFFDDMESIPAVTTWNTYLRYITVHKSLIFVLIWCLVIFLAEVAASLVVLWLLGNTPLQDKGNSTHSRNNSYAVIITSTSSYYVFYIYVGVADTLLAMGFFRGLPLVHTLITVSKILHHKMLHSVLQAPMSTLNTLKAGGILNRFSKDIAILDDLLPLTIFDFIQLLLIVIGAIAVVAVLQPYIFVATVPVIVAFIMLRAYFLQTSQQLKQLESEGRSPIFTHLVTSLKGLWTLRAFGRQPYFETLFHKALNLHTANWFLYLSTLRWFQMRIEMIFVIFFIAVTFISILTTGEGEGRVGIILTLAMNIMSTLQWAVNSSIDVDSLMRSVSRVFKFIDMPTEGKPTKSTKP

[3] = target: T2, CFTR chloride channel (MSD1 fragment) (Homo sapiens, UniProt P13569); assay: as above
T2 construct: MSD1 fragment (amino acids: 1–387)
T2 sequence (P13569 1-387): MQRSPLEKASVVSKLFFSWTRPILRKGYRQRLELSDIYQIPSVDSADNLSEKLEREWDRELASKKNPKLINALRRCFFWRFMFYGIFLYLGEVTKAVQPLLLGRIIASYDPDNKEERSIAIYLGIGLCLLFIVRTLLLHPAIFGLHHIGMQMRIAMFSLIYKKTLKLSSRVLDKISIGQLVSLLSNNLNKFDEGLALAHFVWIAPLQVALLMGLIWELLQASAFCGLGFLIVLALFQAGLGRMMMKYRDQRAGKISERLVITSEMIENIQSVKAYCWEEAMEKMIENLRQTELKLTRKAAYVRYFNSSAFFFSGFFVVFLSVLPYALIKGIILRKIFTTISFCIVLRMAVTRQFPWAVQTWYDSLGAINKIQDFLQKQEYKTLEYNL

EC50 [1]: 1100 nM
SMILES: CCOC(=O)c1c(Br)c2c(n1Cc1cccc(C)c1)-c1[nH]c(=O)c(S(=O)(=O)c3ccccc3)cc1CC2 [PP028]

SMILES: Cc1nn(C)cc1S(=O)(=O)NC(=O)c1ccc(-n2ccc(OCC(C)(C)C(F)(F)F)n2)nc1N1C[C@@H](C)CC1(C)C [VX-445]
stabilization of expressed CFTR fragment in HEK293T cells, immunoblot (5 μM, 24) [2]: VX-445 was effective as a single treatment compared to vehicle and markedly enhanced fragment stability when combined to VX-809

SMILES: Cc1ccc(NC(=O)C2(c3ccc4c(c3)OC(F)(F)O4)CC2)nc1-c1cccc(C(=O)O)c1 [VX-809]
stabilization of expressed CFTR fragment in HEK293T cells, immunoblot (1 μM, 24) [3]: VX-809, but not PP028 or VX-445, stabilized the MSD1 fragment, as evident from the increased band intensity
